Source: the supplement of paper PMC13380429
± gives the standard deviation of the averaged measurements.

Tests used:
Conditions in all cases: 72 h
Calu-3 [1] = test: drug sensitivity score (DSS) for viability; higher = more toxic; extreme values may be limits of the assay
Vero E6 [2] = test: as above
U2OS [3] = test: as above
Caco-2 [4] = test: as above
HepG2 [5] = test: as above
Calu-3 [6] = test: cell viability relative to DMSO; higher = less toxic
Vero E6 [7] = test: as above
U2OS [8] = test: as above
Caco-2 [9] = test: as above
HepG2 [10] = test: as above
Calu-3 [11] = test: relative viability EC50 (midpoint between 100% and the lowest measured viability); higher = less toxic
Vero E6 [12] = test: as above
U2OS [13] = test: as above
Caco-2 [14] = test: as above
HepG2 [15] = test: as above

SMILES	drug sensitivity score (Calu-3 [1])	drug sensitivity score (Vero E6 [2])	drug sensitivity score (U2OS [3])	drug sensitivity score (Caco-2 [4])	drug sensitivity score (HepG2 [5])	cell viability (Calu-3 [6]; 1 nM) [%]	cell viability (Calu-3 [6]; 10 nM) [%]	cell viability (Calu-3 [6]; 100 nM) [%]	cell viability (Calu-3 [6]; 1000 nM) [%]	cell viability (Calu-3 [6]; 10000 nM) [%]	cell viability (Vero E6 [7]; 1 nM) [%]	cell viability (Vero E6 [7]; 10 nM) [%]	cell viability (Vero E6 [7]; 100 nM) [%]	cell viability (Vero E6 [7]; 1000 nM) [%]	cell viability (Vero E6 [7]; 10000 nM) [%]	cell viability (U2OS [8]; 1 nM) [%]	cell viability (U2OS [8]; 10 nM) [%]	cell viability (U2OS [8]; 100 nM) [%]	cell viability (U2OS [8]; 1000 nM) [%]	cell viability (U2OS [8]; 10000 nM) [%]	cell viability (Caco-2 [9]; 1 nM) [%]	cell viability (Caco-2 [9]; 10 nM) [%]	cell viability (Caco-2 [9]; 100 nM) [%]	cell viability (Caco-2 [9]; 1000 nM) [%]	cell viability (Caco-2 [9]; 10000 nM) [%]	cell viability (HepG2 [10]; 1 nM) [%]	cell viability (HepG2 [10]; 10 nM) [%]	cell viability (HepG2 [10]; 100 nM) [%]	cell viability (HepG2 [10]; 1000 nM) [%]	cell viability (HepG2 [10]; 10000 nM) [%]	relative viability EC50 (Calu-3 [11]) [µM]	relative viability EC50 (Vero E6 [12]) [µM]	relative viability EC50 (U2OS [13]) [µM]	relative viability EC50 (Caco-2 [14]) [µM]	relative viability EC50 (HepG2 [15]) [µM]
O=C(c1ccc(F)cc1)N1CCC[C@H](c2nc(-c3ccc(F)cc3)no2)C1	1.2	0	0	0	0	90	100	85.3	98.2	75.5	98.3	93.5	94.7	93.9	95.5	94	101	99.9	98.8	91.7	101	94.3	91.8	99.7	87.9	93.7	99.4	93	96	91.1	> 10	> 10	> 10	> 10	> 10
O=C1C(=C(O)/C=C/c2ccc(O)cc2)C(=O)[C@@](O)([C@@H]2O[C@H](CO)[C@@H](O)[C@H](O)[C@H]2O)C(=O)[C@H]1[C@@H]1O[C@H](CO)[C@@H](O)[C@H](O)[C@H]1O	0	0	0	0	0	103	97.6	102	101	97.9	101	98.1	98.5	95.8	98.5	101	97.8	95	99.3	98.6	102	91.2	93.1	93.3	95.8	102	97.2	104	102	106	> 10	> 10	> 10	> 10	> 10
c1ccc(CN2CCC3(CCc4ccccc43)CC2)cc1	0	0	0	0	0	99.6	98.5	108	95.4	96.5	97.1	97	92.8	94.4	104	102	102	101	99.6	99.6	96.9	97.5	99	93	89.6	95.1	101	91.9	106	102	> 10	> 10	> 10	> 10	> 10
N[C@@H](C(=O)O)c1ccc(C(=O)O)c(C(=O)O)c1 (racemic) [3,4-DCPG-(+/-)]	0	0	0	0	0	93.4 ± 4.4	99.8 ± 2.7	95.7 ± 3.2	93 ± 1.3	95.3 ± 1.3	96.8 ± 6	101 ± 3.4	96 ± 2.5	100 ± 3.2	105 ± 4.1	99.5 ± 2.4	95.4 ± 0.42	103	97.6 ± 3.8	100 ± 3.4	101 ± 5.2	94.9 ± 2.8	103 ± 3.2	96.6 ± 9.6	97.4 ± 2.9	88.3 ± 15	99.2 ± 3.1	89.5 ± 20	102 ± 6.3	97.7 ± 20	> 10	> 10	> 10	> 10	> 10
O[C@@H](CN1CCC(Cc2ccc(F)cc2)CC1)c1ccc(Cl)cc1 (racemic) [eliprodil]	0	0	0	0	0	99.2	95.2	106	92.3	104	98.8	92	98.8	98.1	105	91.1	93.3	87.3	87.9	97.6	100	96.2	101	103	104	96.6	99.7	97.8	87.6	108	> 10	> 10	> 10	> 10	> 10
CCCN1CCCC(c2cccc(O)c2)C1 (stereo in doubt) [preclamol]	0	0	0	0	0	110	110	112	93.5	99.6	90.5	99.2	95.1	98.3	91.8	102	103	102	99.1	101	107	94.9	106	93.1	99.6	95.6	110	107	112	99.6	> 10	> 10	> 10	> 10	> 10
C[N+]1(C)CCC(OC(=O)C(c2ccccc2)c2ccccc2)CC1 [4-DAMP]	0	0	0	0	0	85.8	87.6	92.9	101	100	98.5	99.8	99	97.4	96	103	97.7	99.2	97.7	99.5	105	96.3	106	102	87.4	90.8	97	103	100	90.9	> 10	> 10	> 10	> 10	> 10
NCC(=O)CCC(=O)O [5-aminolevulinic-acid]	0	0	0	1.1	0	96.9	104	105	104	104	93.7	94	91.7	91.3	97.8	104	96.9	99	94.6	95.3	100	103	98.9	86.2	94	91.4	99	92.1	104	104	> 10	> 10	> 10	> 10	> 10
CCCCCCCCC(=O)NCc1cc(OC)c(O)cc1I [6-iodo-nordihydrocapsaicin]	0	0	0	0.1	0	104	98.6	108	109	104	88.5	99.4	92.2	92.5	104	97.4	98	101	96.6	92.5	97.9	101	103	97.7	88.6	96.6	110	95.6	104	103	> 10	> 10	> 10	> 10	> 10
CCN(CC)C(=O)c1ccc(C2=CC3(CCNCC3)Oc3cccc(O)c32)cc1 [ADL5859]	0	0	0	0	0	92.9	96.9	91.8	105	105	94.1	104	94.9	98.5	108	95.4	98.2	100	103	104	93	99.8	91.9	97.3	110	103	99.5	104	100	101	> 10	> 10	> 10	> 10	> 10
Oc1c(I)cc(I)cc1I [AM-24]	0	0	0	0	0	96.7	95	104	97.3	101	96.8	103	99.6	104	97.2	97.8	97.8	103	97.7	104	99.5	97.6	93	88.5	101	95.4	103	89.9	108	102	> 10	> 10	> 10	> 10	> 10
O=C(Nc1ccc2c(O)cc(S(=O)(=O)O)cc2c1)Nc1ccc2c(O)cc(S(=O)(=O)O)cc2c1 [AMI-1]	0	0	0	0	0	104	100	100	109	99.8	97.2	102	102	106	96	103	102	99	102	101	87	97.8	92.8	93.5	97.2	101	110	106	107	94.3	> 10	> 10	> 10	> 10	> 10
C[C@@]1(CO)[C@H](O)CC[C@@]2(C)[C@H]1CC[C@H]1C[C@@H]3C[C@@]12CC[C@]3(O)CO [aphidicolin]	2.1	5.1	0.8	6.8	10.6	111	100	110	87.3	77.7	106	109	100	90.7	35.8	106	104	101	98.7	79.4	100	100	80	79.2	72	100	100	91.3	50.5	22.5	> 10	2.02	> 10	–	0.608
CCCc1cc(C(N)=S)ccn1 [protionamide]	0	0	0	5.7	0	96.2	100	88.9	107	92.4	102	98.6	93.3	101	91.6	104	107	98.6	96	96.4	94.4	80.4	93.8	73.7	68.3	108	105	95.9	103	95.3	> 10	> 10	> 10	–	> 10
OC(CCN1CCCCC1)(c1ccccc1)C1CCCCC1 (configuration not stated) [trihexyphenidyl]	0.5	0.5	0	1.7	0.3	102	98.9	96.7	90.7	85.6	103	106	112	98.9	83.1	96.9	103	101	98.1	97.8	101	100	95.5	94.6	74.7	101	87.7	100	93.2	83.4	> 10	> 10	> 10	–	> 10
